Experimental data published in US20220047701A1, “COMBINATION OF HER2/NEU ANTIBODY WITH HEME FOR TREATING CANCER” (INSERM (Institut National de la Santé et de la Recherche …, priority 2018, published 2022).
pKd: −log10 of the molar value.

Columns and labels:
[1] = tested on: Trastuzumab; assay: Induction of polyreactivity of Trastuzumab by heme derivatives; assay type: binding; conditions: for induction of polyreactivity of Trastuzumab: exposure of Trastuzumab to the compound; for rank of potential to induce polyreactivity: reactivity towards bacterial antigens
[2] = target: Trastuzumab; assay: SPR binding kinetics and thermodynamics of heme to immobilized Trastuzumab
Description: Trastuzumab was immobilized on a CMS sensor chip (Biacore) by using amine-coupling kit provided by the manufacturer. The Ab was diluted in 5 mM maleic acid (pH 4) to a final concentration of 10 μg/ml. The achieved immobilization level was 6300 resonance unit (RU). All measurements were performed using HBS-EP (0.01M HEPES, pH 7.4 containing 0.15 M NaCl, 3 mM EDTA and 0.05% Tween 20). Initially, a stock solution of heme (hemin, Frontiers Scientific, Logan, Utah) at 1 mM was prepared in 0.05 N NaOH. Heme was further diluted to 10 μM in the running buffer and 8 two-fold dilutions (10-0.078 μM) were injected at flow rate of 30 μl/min. The association and dissociation phases of the interaction were monitored for 5 min and 10 min, respectively. […]
Heme was diluted at 10 μM in HBS-EP and injected at flow rate of 30 ul/min. The association and dissociation phases of the interaction were monitored for 5 min and 10 min, respectively. […]
The kinetic rate constants obtained at different temperatures were used to build Arrhenius plots. The values of slopes of the Arrhenius plots were calculated by using a linear regression analysis of the experimental kinetic data and substituted in Equations 1-4,
Where the “slope”=∂1n(ka/d/∂(1/T), and where Ea is the activation energy. The enthalpy, entropy, and Gibbs free energy changes characterizing the association phase were calculated using Equations 2-4, […]

[3] = tested on: more than 9,000 human proteins; assay: Protein microarray (ProtoArray) reactivity; assay type: binding
[4] = tested on: Trastuzumab; assay: Absorbance spectroscopy of heme with Trastuzumab; assay type: binding
Description: Absorbance spectra were measured by using UNICAM Helios b, UV-vis spectrophotometer. […] After addition of each heme aliquot and incubation for 2 min in dark, the absorbance spectra in the wavelength range 350-700 nm were recorded. The spectra were scanned at rate of 300 nm/min. All measurements were performed at room temperature, in quartz cuvettes with optical path of 1 cm.

[5] = tested on: SKBR3 cells; assay: Direct and complement-mediated cytotoxicity (WST-1), SKBR3; assay type: cell-based, human; conditions: identical concentrations as introduced by heme-bound Trastuzumab
Description: (§1) Cells were treated on 96-wells plates with flat bottom and low evaporation lid (Coster, USA). MDA-MB-231 or SKBR3 breast cancer cells were plated and left for 2 hours to adhere. […] The Ab was diluted to a final concentration of 3.7 μg/ml. As a source of complement, baby rabbit complement (AbD Serotec) was added to obtain a dilution of ×5 (MDA-MB-231 cells) or ×8 (SKBR3 cells). As control, heat inactivated fetal calf serum was added at the same ratios. To evaluate the amount of alive cells, WST-1 dye (Roche) was added after 5 days of incubation at 37° C. The absorbance at 450 nm and 690 nm was read after 2 hours incubation at 37° C.

[6] = tested on: MDA-MB-231 cells; assay: Direct and complement-mediated cytotoxicity (WST-1), MDA-MB-231; assay type: cell-based, human; conditions: identical concentrations as introduced by heme-bound Trastuzumab
Description: as §1

[7] = tested on: Trastuzumab; assay: Quenching of intrinsic tryptophan fluorescence of Trastuzumab by heme; assay type: binding
Description: The Ab was diluted to 0.1 μM in PBS and titrated with increasing concentrations (0, 0.01, 0.025, 0.05, 0.1, 0.2, 0.4, 0.8, 1.6 and 3.2 μM) of heme, added as aliquots from a stock solution. A wavelength of 295 nm was used to selectively excite tryptophan residues. Excitation and emission slits were both adjusted to 10 nm. […] Quartz cuvette with 1 cm optical path was used in the experiment. All measurements were performed at room temperature.

[8] = tested on: Trastuzumab; assay: Circular dichroism of Trastuzumab exposed to heme; conditions: Ab 1 μM, heme 10 μM
Description: The CD spectra measurements were performed with JASCO-J710 Spectrometer. Data pitch and slit were both set to 1 nm. The data were recorded at scan speed on 10 nm/min in the range of 260-185 nm. […] The Ab was exposed or not to 10 μM concentration of heme. All spectra were acquired at 20° C. in quartz cuvettes with 1 mm optical path.

[9] = tested on: Trastuzumab; assay: Size-exclusion chromatography, induction of Trastuzumab oligomers by heme or heme analogues; assay type: physicochemical
[10] = tested on: immobilized Trastuzumab; assay: ELISA induction of antibody homophilicity by heme; assay type: binding
Description: The plates were blocked with PBS 0.25% containing Tween 20 for 1 hour. […] IgG was then diluted two times in PBS-T before incubation on plates for 2 h at room temperature. Following extensive washing, the plates were incubated for 30 min with streptavidin-HRP (Southern Biotech).
IgG was then diluted ten times in PBS-T before incubation on the plates for 2 h at room temperature.

CC1=C(CCC(=O)O)c2cc3[n-]c(cc4nc(cc5[n-]c(cc1n2)c(CCC(=O)O)c5C)C(CCC(=O)O)=C4C)c(CCC(=O)O)c3C.[Fe+3] [Fe (III) coproporphyrin I]
induction of polyreactivity of Trastuzumab [1]: appearance of novel antigen-binding specificities

iron protoporphyrin IX [heme]
pKd ([2]; SPR, heme to immobilized Trastuzumab): 7.00
portion of the Ab binding heme ([2]; immobilized Fab fragments, Fc fragments, heme 10 μM): preferential binding to the immobilized Fab portion
binding to human proteins [3]: able to bind to numerous human proteins, but to a lower extent
change in absorbance spectrum [4]: increased absorbance intensity of heme in high and low energy regions of the spectrum
cell proliferation, heme alone [5]: no negative impact on the cell proliferation
cell proliferation, heme alone [6]: no negative impact on the cell proliferation
quenching of tryptophan fluorescence [7]: concentration-dependent decrease in the fluorescence signal
rank of potential to induce polyreactivity [1]: lowest potential
change of circular dichroism spectra [8]: Considerable changes of the circular dichroism ellipticity curves

CC1=Cc2cc3[n-]c(cc4nc(cc5[n-]c(cc1n2)c(C)c5CCC(=O)O)C(CCC(=O)O)=C4C)cc3C.[Fe] [Fe (III) deuteroporphyrin IX]
induction of polyreactivity of Trastuzumab [1]: appearance of novel antigen-binding specificities
rank of potential to induce polyreactivity [1]: most potent inducer of polyreactivity

CCC1=C(C)C2=NC1=Cc1c(C)c(CC)c3[n]1[Fe][n]1c(c(C)c(CCC(=O)O)c1=CC1=NC(=C3)C(C)=C1CCC(=O)O)=C2 [Fe (III) mesoporphyrin IX]
induction of polyreactivity of Trastuzumab [1]: appearance of novel antigen-binding specificities
induction of oligomerization / self-association of Trastuzumab [9]: able to induce oligomerization of Trastuzumab

C=CC1=C(C)c2cc3[n-]c(cc4[n-]c(cc5nc(cc1n2)C(C)=C5C=C)c(C)c4CCC(=O)O)c(CCC(=O)O)c3C.[Zn+2] [ZnPP, Zn (II) protoporphyrin IX, reference compound]
induction of antibody homophilicity by heme analog [10]: failed to induced antibody homophilicity or oligomerization
induction of oligomerization / self-association of Trastuzumab [9]: failed to induced antibody homophilicity or oligomerization
